System: auditory hair cells of organ of Corti (OC) explants
Assay: Protection of auditory hair cells from gentamicin-induced loss in organ of Corti explant culture (hair cell counting, basal turn)
Type: cell-based, C57bl/6j mice
Conditions: for hair cells lost / protection from loss of hair cells / loss of hair cells: 24 hours; for protection against gentamicin-induced loss of hair cells (in words): Example 1: 5 μM pioglitazone, 30 μM pamapimod, or both, with gentamicin, 24 hr in culture; for loss of hair cells: p5 mouse OC explants, basal turn
Procedure: All animal procedures were carried out according to protocols approved by the Kantonales Veterinäramt, Basel, Switzerland. Postnatal day 5 (p5) C57bl/6j were used for the studies. Studies were performed in vitro, using organ of Corti (OC) explants from p5 animals. Animals were sacrificed and the cochleae carefully dissected to separate the organ of Corti from the spiral ganglion, stria vascularis and Reissner's membrane [Sobkowicz H M, Loftus J M, Slapnick S M. Acta Otolaryngol Suppl. 1993; 502:3-36].
OCs were harvested and then placed in culture medium [Dulbecco's Modified Eagle Medium supplemented with 10% FCS, 25 mM HEPES and 30 U/ml penicillin (Invitrogen, Carlsbad, 20 CA, USA)] and incubated for 24 hours at 37° C. in an atmosphere of 95% O2/5% CO2. After that period, the culture medium was replaced with fresh medium containing no compound or 50 μM gentamicin alone or 50 μM gentamicin with either 5 μM pioglitazone, 30 μM pamapimod, or 5 μM pioglitazone+30 μM pamapimod, and incubated for a further 24 hours at 37° C. Ten OC explants were used for each treatment condition.
After incubation with compounds, the OCs were fixed in 4% paraformaldehyde, washed and then stained with a fluorescein (FITC)-conjugated phalloidin to detect inner and outer hair cells. After staining, the OCs were visualized and photographed using a fluorescence microscope (Olympus FSX100). Auditory hair cells were quantified for the basal turn of each organ of Corti in 3 fields corresponding to 80 hair cells each. The average values for the three fields were then averaged for the 10 OCs used for each condition. Significant differences between treatment groups in numbers of hair cells were determined using analysis of variance (ANOVA) followed by the least significant difference (LSD) post-hoc test (Stat View 5.0). Differences associated with P values of less than 0.05 were considered to be statistically significant. All data are presented as mean±SD.
OCs were harvested and then placed in culture medium [Dulbecco's Modified Eagle Medium supplemented with 10% FCS, 25 mM HEPES and 30 U/ml penicillin (Invitrogen, Carlsbad, 20 CA, USA)] and incubated for 24 hours at 37° C. in an atmosphere of 95% O2/5% CO2. After that period, the culture medium was replaced with fresh medium containing no compound or 100 µM gentamicin alone or 100 μM gentamicin with either 1 μM pioglitazone, 1 μM pamapimod, or 1 μM pioglitazone+1 μM pamapimod, and incubated for a further 24 hours at 37° C. The gentamicin concentration of 100 μM was determined as that concentration that leads to 50% loss of hair cells. Batch to batch variation in the activity of gentamicin requires that the concentration used for specific experiments leading to 50% hair cell loss be predefined in pilot experiments for each batch. Ten OC explants were used for each treatment condition.

Which results are given for `Cn1c(=O)c(Oc2ccc(F)cc2F)cc2cnc(NC(CCO)CCO)nc21` [pamapimod, 6-(2,4-Difluorophenoxy)-2-[3-hydroxy-1-(2-hydroxyethyl)-propylamino]-8-methyl-8H-pyrido[2,3-d]pyrimidin-7-one]?
hair cells lost (Example 1, FIG. 1: 30 μM pamapimod (micronized, Dv50=3 μm) with 50 μM gentamicin): approximately 20%; protection against gentamicin-induced loss of hair cells (in words): partially prevented the loss of hair cells; protection from loss of hair cells (Example 2, FIG. 2: 1 μM pamapimod with 100 μM gentamicin): approximately 30%

gentamicin was tested. Which “loss of hair cells” value (Example 1, FIG. 1: 50 μM gentamicin alone) did it give?
Its value is “approximately 50%”.

And the “loss of hair cells” value (Example 2, FIG. 2: 100 μM gentamicin alone)?
Its value is “approximately 50%”.

`CCc1ccc(CCOc2ccc(CC3SC(=O)NC3=O)cc2)nc1` (centres unmarked) [pioglitazone] was tested. Which hair cells lost (Example 1, FIG. 1: 5 μM pioglitazone (micronized, Dv50=4 μm) with 50 μM gentamicin) did it give?
The hair cells lost was “approximately 20%”.

And the “protection against gentamicin-induced loss of hair cells (in words)” value?
The value was “partially prevented the loss of hair cells”.

What about the “protection from loss of hair cells” value (Example 2, FIG. 2: 1 μM pioglitazone with 100 μM gentamicin) of the same compound?
Its value is “approximately 40%”.
